From paper PMC10182956 (Archives of Toxicology, 2023)
Where two headings read alike, the source gives them in different places.

Assays:
[1] = IVIVE reverse dosimetry: oral equivalent dose (OED) from BMC; details: IVIVE derived median over all positive imaging endpoints; rat simulation (R script); Table 2
Excerpt: (§1) Human data were used except where otherwise stated. […]
mc_OED_WY14643_LD <- calc_mc_oral_equiv(40.98, chem.cas="50892-23-4", model = "3compartmentss",species="Rat", return.samples = T, samples=1000, httkpop = T) mc_OED_WY14643_MD <- calc_mc_oral_equiv(38.1, chem.cas="50892-23-4", model = "3compartmentss",species="Rat", return.samples = T, samples=1000, httkpop = T) mc_OED_WY14643_NM <- calc_mc_oral_equiv(386.28, chem.cas="50892-23-4", model = "3compartmentss",species="Rat", return.samples = T, samples=1000, httkpop = T)

HepaRG cells [2] = experiment: High-content imaging assay: lipid accumulation (Bodipy lipid droplets); type: cell-based; details: HepaRG 24 h; for Lipid accumulation response (in words): population level, threshold ± 2 standard deviations of the response at the two lowest concentrations; for EC (BMC, 1 SD from control): Homo sapiens, lipid accumulation, Supplementary table 3, read-out: LA: Benchmark concentration (µM) per imaging endpoint calculated with BMDS software
[3] = Published in vivo pharmacokinetics (Css, clearance); details: for In vivo Css (µM): calculated with Css = (Dose*F)/(Cl*dosing interval) or k0/Cl from published pharmacokinetic parameters, ref Cunningham 2007, Adedayo Adedoyin, Leon Arons 1993b; for hepatocyte CLint: hepatocytes (back-calculated, no incubation), in vitro intrinsic hepatic clearance calculated from in vivo clearance with formula 3, read-out: Calculated Clint (ul/min/10^6 cells)
Excerpt: For the model evaluation, Css of selected reference chemicals were predicted using formula 1 with the same dose rate from the in vivo Css measurements. For chemicals with no in vitro intrinsic hepatic clearance and fraction unbound values available in the database included in the httk package, in silico predictions from (Sipes et al. [2017]) were loaded using load_sipes2017(). […]. The formula to calculate Clint was derived from the function calc_hepatic_clearance within the httk package. Predicted Css values were then compared to published in vivo Css values. If there was no published in vivo Css available, Css was then calculated based on published in vivo pharmacokinetic parameters using the following formula (Supplementary table 3)4 Css(mg/L)=(Dose×F)/(Cl×dosinginterval)
Supplementary table 3. Comparison of benchmark concentration and predicted Css with published pharmacokinetic values. Where indicated, in vivo derived Css values were calculated using following formula: Css = (Dose*F)/(Cl*dosing interval) or Css = k0/Cl with F = bioavailability, Cl = clearance, k0 = infusion rate and Css = steady state concentration.

HepaRG cells [4] = details: HepaRG 24 h; for Number of apoptotic cells (nuclear morphology) response (in words): population level, threshold ± 2 standard deviations of the response at the two lowest concentrations
Experimental: (§2) Cellular responses were quantified using a high-content imaging approach (Fig. 1). Based on cell viability assessment, concentrations below the EC50 level were tested in the high-content imaging assay. After 24 h chemical exposure, live cells were incubated with CellROX, which reflects hydroxyl radi [...

HepaRG cells [5] = details: HepaRG 24 h, population level; threshold ± 2 standard deviations of the response at the two lowest concentrations
HepaRG cells [6] = experiment: cells; details: Homo sapiens, 24 h, read-out: MMP: Benchmark concentration (µM) per imaging endpoint calculated with BMDS software
HepaRG cells [7] = experiment: cells; details: Homo sapiens, 24 h, read-out: NM: Benchmark concentration (µM) per imaging endpoint calculated with BMDS software
Experimental: as §2

[8] = IVIVE reverse dosimetry: oral equivalent dose (OED) from BMC; details: IVIVE derived median over all positive imaging endpoints; rabbit simulation (R script); Table 2
Excerpt: as §1
mc_OED_MEN_LD <- calc_mc_oral_equiv(2.835, chem.cas="58-27-5", model = "3compartmentss",species = "Rabbit",return.samples = T, samples=1000, httkpop = T) mc_OED_MEN_NM <- calc_mc_oral_equiv(8.1, chem.cas="58-27-5", model = "3compartmentss",species = "Rabbit", return.samples = T, samples=1000, httkpop = T) quantile_OED_MEN_LD <- quantile(mc_OED_MEN_LD, c(0.05, 0.5, 0.95), na.rm = TRUE) quantile_OED_MEN_NM <- quantile(mc_OED_MEN_NM, c(0.05, 0.5, 0.95), na.rm = TRUE)

[9] = cited from earlier work
[10] = design: method as in Hu et al. 1996; details: fraction unbound plasma; rabbit; ref Hu et al. 1996; cited from earlier work
HepaRG cells [11] = details: HepaRG 24 h, population level; threshold ± 2 standard deviations of the response at the two lowest concentrations; remark: listed apart in the source
[12] = design: method as in Literature column of Supplementary table 4; details: value added to httk database; ref Supplementary table 4; cited from earlier work
HepaRG cells [13] = experiment: Cell viability assessment (WST-1 assay); type: cell-based, human; details: Homo sapiens, 24 h exposure, reference chemicals, 95% CI in brackets, read-out: EC50 µM (95% CI) from cell viability (WST-1)
Excerpt: Undifferentiated HepaRG cells were purchased from Biopredic international (Saint Grégoire, France). HepaRG cells have unlimited growth capacity and phenotypic stability, stable enzymatic activities over 4 weeks of cultivation, and similar metabolic function to primary human hepatocytes, and also avoid limitations of primary cells such as donor variability and phenotypic instability (Aninat et al. [2006]; Guillouzo et al. [2007]; Lambert et al. [2009]; Lübberstedt et al. [2011]; Andersson et al. [2012]). The line contains two cell types, hepatocyte-like and cholangiocyte-like cells (Parent et al. [2004]), which allows for elucidation of cell-specific toxicity (Jossé et al. [2008]). Cells were seeded at a density of approximately 27′000 cells/cm^2 into a 150 × 25 mm petri dish and were cultured for 2 weeks in William’s E medium (cat. nr.: 32,551,020, ThermoFisher Scientific, Massachusetts, USA) supplemented with 2 mM glutamine, 10% (v/v) fetal bovine serum (FBS) good forte (cat. nr.: P40-47,500, PAN-Biotech, Aidenbach, Germany), 100 U/ml penicillin and 100 µg/ml streptomycin (cat. nr.: 15,140,122, ThermoFisher Scientific, Massachusetts, USA), 5 µg/ml Gibco recombinant AOF insulin (cat. nr.: A11382II, ThermoFisher Scientific, Massachusetts, USA) and 50 µM hydrocortisone hemisuccinate (cat. nr.: H4881, Sigma-Aldrich, St. Louis, USA) at 37 °C and 5% CO2. Differentiation was induced by culturing the cells for another 2 weeks in the above mentioned medium supplemented with 1.7% DMSO. After 4 weeks in culture, differentiated HepaRG cells were seeded at a high density of approximately 227′000 cells/cm^2 (72,000 cells/well with 100 µl per well) into black 96-well plates with a clear bottom (cat.nr.: 3603, Corning, New York, USA) and maintained for 10 days. After 10 days, cells were first adapted to treatment medium (culture medium containing 0.5% DMSO and 2% FBS) for 48 h and then used for cell viability and high-content imaging analysis.
Cell viability was analyzed using the WST-1 assay which is based on the measurement of mitochondrial dehydrogenase activity (cat. nr: ab155902, Abcam, Cambridge, UK). HepaRG cells were exposed to chemicals at defined concentrations for 24 h. Triton X-100 (0.01%) was a positive control. One hour before the end of incubation period, 10 µl of WST-1 reagent was added to each well, quickly mixed by shaking the plate, and returned to the cell culture incubator (37 °C, 5% CO2). After 1 h, absorbance was measured (450 nm, reference wavelength 620 nm) using a plate reader (Infinite M200 Pro, Tecan group, Männerdorf, Switzerland). Absorbance was then subtracted from the reference wavelength, corrected for background by subtracting values measured without cells, and then normalized to the solvent control, which was set to 100%. Dose–response data were fitted using drc package (Version 3.0.1) (Ritz et al. [2015]) in R 3.6.1. Data were from at least 3 independent experiments with 6 technical replicates per condition.

[14] = design: method as in Adedayo Adedoyin, Leon Arons 1993a; details: rat; plasma clearance; ref Adedayo Adedoyin, Leon Arons 1993a; cited from earlier work
[15] = design: method as in Adedayo Adedoyin, Leon Arons 1993a; details: fraction unbound plasma; rat; ref Adedayo Adedoyin, Leon Arons 1993a; cited from earlier work

| Compound | Lipid accumulation response (in words) (HepaRG cells [2]) | EC (BMC, 1 SD from control) (HepaRG cells [2]) | In vivo Css (µM) ([3]; rat) | Number of apoptotic cells (nuclear morphology) response (in words) (HepaRG cells [4]) | Mitochondrial membrane potential response (in words) (HepaRG cells [5]) | EC (BMC) (HepaRG cells [7]) | Oxidative stress response (in words) (HepaRG cells [11]) | LogP [12] | further results |
| --- | --- | --- | --- | --- | --- | --- | --- | --- | --- |
| Cc1cccc(Nc2cc(Cl)nc(SCC(=O)O)n2)c1C [WY14643] | dose-dependently increased and exceeded the threshold | 41 µM | 2.5^3,5 µM | induced apoptosis | MMP hyperpolarization | 386 µM |  |  | OED [1]: 1.7 mg/kg/day; Lipid accumulation response (in words) (HepaRG cells [2]; listed as WY-14693): having the potential to induce lipid accumulation; EC (BMC, 1 SD from control) (HepaRG cells [6]): 38.1 µM |
| CC1=CC(=O)c2ccccc2C1=O [menadione] | increased in a dose-dependent manner | 2.8 µM |  |  |  | 8.1 µM | unexpected negative outcomes | 2.2 | OED [8]: 55.4 mg/kg/day; In vivo Css (µM) ([9]; in rabbits, reference cell empty): 12.6^4 µM; In vivo clearance ([9]; rabbit, ref Hu et al. 1996): 49.32 L/h; hepatocyte CLint ([3]; rabbit): 58.3 µL/min/1e6 cells; Concentration at which increase of number of apoptotic cells (nuclear morphology) exceeded the threshold (HepaRG cells [4]): 25 µM; Fup [10]: 0.2; EC50 (HepaRG cells [13]): 59.1 µM |
| O=c1cc(-c2ccccc2)oc2ccc3ccccc3c12 [β-naphthoflavone] | did not give rise to lipid accumulation |  | 2.3^3 µM | none of the hallmarks were induced | none of the hallmarks were induced |  | none of the hallmarks were induced | 4.4 | Lipid accumulation response (in words) (HepaRG cells [2]; listed as BNF): not; In vivo clearance (L/h) [14]: 1.3 (plasma clearance) L/h; hepatocyte CLint ([3]; rat): 23.4 µL/min/1e6 cells; Fup [15]: 0.04 |
